For the assay, the system named is gray mold fungus (Botrytis cinerea). Description: cucumber leaf disk test against gray mold fungus, preventive value. It counts as in vivo. The note with it: single compound, 15° C., four days. As for the experimental part: True leaf of cucumber was punched out with cork borer to 13 mm in diameter to prepare a leaf disk. In 24 well microwell plate that was dispensed with 1 ml 0:8% water agar, the leaf disk was placed such that the upper side of the leaf was in an upward direction. Thereto was added 20 micro liter a testing solution prepared by mixing a dimethyl sulfoxide solution of the present amide compound and a dimethyl sulfoxide solution of benomyl or carbendazim to a predetermined concentration to treat the leaf disk.
After confirming that the testing medical solution was dried, conidium of gray mold fungus (Botrytis cinerea) was suspended into potato dextrose broth (DIFCO) in a density of about 10^5 conidia/mL and was then subjected to a spray inoculation. After leaving to stand the leaf disk in a growth chamber set up at 15° C. for four days, an onset area on each leaf was measured and then calculated an onset area rate (hereinafter, referred to as an onset area rate belonging to treated group).
The same operation was carried out with 20 micro liter water instead of 20 micro liter the testing medicine solution to calculate an onset area rate (hereinafter, referred to an onset area rate belonging to non-treated group).
A preventive value was calculated from the above onset area rate belonging to treated group and the onset area rate belonging to non-treated group by the following equation:
Preventive value(%)=100×(A−B)/A
A: an onset area rate belonging to non-treated group
B: an onset area rate belonging to treated group
onset area rate=(onset area of the leaf disk)/(the total area of the leaf disk)
For comparison, the same operations as described in Test Examples 1 to 4 were carried out except that the testing medicine solution was substituted with predetermined concentration of a dimethyl sulfoxide solution of benomyl or carbendazim, so as to calculate a preventive value.

The mark [1] stands for this setting: treatment concentration 0.5 ppm.
The mark [2] stands for this setting: treatment concentration 5.0 ppm.

This is an account of results in US20130296391A1, “PLANT DISEASE CONTROLLING COMPOSITION AND METHOD FOR CONTROLLING PLANT DISEASE” (SUMITOMO CHEMICAL COMPANY, LIMITED, priority 2010, published 2013).

Structures are written as SMILES.

As to `CCCCNC(=O)n1c(NC(=O)OC)nc2ccccc21` [benomyl], the “preventive value (%)” value was 47.5% under setting [1] and 56.5% under setting [2].

With `COC(=O)Nc1nc2ccccc2[nH]1` [carbendazim], the “preventive value (%)” value under setting [1] is 45% and the “preventive value (%)” value under setting [2] amounted to 55.5%.

For `CNC(=O)C(OC)c1ccccc1COc1cc(C)ccc1C` (stereo not drawn) [the present amide compound], the “preventive value (%)” value was determined as 46% (treatment concentration 1.0 ppm) and 55.5% (treatment concentration 2.5 ppm).
